Assay results from patent US6548536B2, “Agent for inducing apoptosis” (Kyowa Hakko Kogyo Co., Ltd., priority 1998, dated 2003).
Converted amounts (≈) assume the structure as drawn.

Experiments:
Assay type in all cases: cell-based
MCF-7 cell = experiment: Growth inhibition test for hormone-dependent human breast cancer MCF-7 cell strain (MTT); details: 72 hours
Method: Cells were placed in each well of a 96-well microplate (Nunc, #167008) in an amount of 4000 cells per well, and the cells were pre-cultured in RPMI 1640 medium containing 5% fetal calf serum (FCS) for 24 hours in a 5% carbon dioxide gas incubator at 37° C. Then, a solution of each test compound in dimethyl sulfoxide (DMSO) prepared at a concentration of 10 mmol/L was serially diluted with the culture medium and added to each well (final volume: 100 μL/well). The cells were then further cultured for 72 hours in a 5% carbon dioxide gas incubator at 37° C. Five hours before completion of the culture, 4,5-dimethylthiazol-2-yl)-2,5-diphenyltetrazolium bromide (Sigma, abbreviated as “MTT” hereinafter) prepared at a concentration of 6 mg/mL with the culture medium was added in an amount of 10 μL per well. After the completion of culture, the medium was sucked, DMSO was added to each well in an amount of 150 μL per well and the mixture was vigorously stirred by using a plate mixer to completely dissolve the crystals of MTT-formazan. Then, difference of absorbance at 550 nm and 630 nm was determined by using a microplate reader (M-Spmax250, Wako Pure Chemicals). Inhibitory activity on the cell growth was calculated as 50% growth inhibitory concentration (IC50) based on a 4-parameter logistic calibration curve by using the formula of the analysis software (SOFTmax-J Ver.2.1) equipped with microplate reader.

[1] = test system: Bacillus Subtilis ATCC107O7; experiment: Antibacterial activity, agar dilution method; parameters: key: —: Inactive; details: pH 7
Method: (§1) Antibacterial activity was determined by the agar dilution method using a medium prepared by dissolving 3 g of Bacto trypton (Difco), 3 g of meat extract, 1 g of yeast extract, 1 g of glucose, and 16 g of agar in 1 L of water (pH 7). The antibacterial activities of typical compounds are shown in Table 6 as minimum growth inhibitory concentrations (MIC)

[2] = test system: Staphylococcus aureus ATCC6538P; experiment: Antibacterial activity, agar dilution method; parameters: key: —: Inactive; details: pH 7
Method: as §1

[3] = test system: Enterococcus hirae ATCC10541; experiment: Antibacterial activity, agar dilution method; parameters: key: —: Inactive; details: pH 7
Method: as §1

HeLa/bcl-2 cells [4] = experiment: Apoptosis inducing activity (caspase activation, Ac-DEVD-AMC) for HeLa/bcl-2 cells; details: Drug concentration: 5 μM; 6 hours; No drug = 100
Method: (§2) Apoptosis inducing activity of the medicaments of the present invention was determined by measuring enzymatic activity of caspase activated in the process of apoptosis induction as described below,. HeLa cells or HeLa cells into which the bcl-2 gene was introduced (HeLa/bcl-2 cells) contained in DME medium containing 10% fetal calf serum (NISSUI PHARMACEUTICAL CO., LTD., referred to as “Medium A” hereinafter in the example) were placed in each well of 96-well microtiter plates in an amount of 3×10^4 cell. The cells on the plates were cultured in a carbon dioxide gas incubator at 37° C. for 12 hours, then a test compound appropriately diluted with Medium A was added to each well in an amount of 10 μl, and the cells were further cultured in a carbon dioxide gas incubator at 37° C. for 6 hours. After the culture supernatant was removed, the cells were lysed, and to the cell lysate was added a fluorescent substrate of caspase, Ac-DEVD-AMC (Peptide Laboratory). Then, the caspase activity was determined by measuring AMC (7-amino-4-methylcoumarin) released as a result of degradation of Ac-DEVD-AMC by caspase remained in the cell lysate through measurement of fluorescence intensity at 460 nm.

HeLa cells = experiment: Apoptosis inducing activity (caspase activation, Ac-DEVD-AMC) for HeLa cells; details: Drug concentration: 5 μM; 6 hours; No drug = 100
Method: as §2

HeLa/bcl-2 cells [5] = experiment: Anti-Fas antibody-dependent apoptosis inducing activity for HeLa/bcl-2 cells; details: Drug concentration: 5 μM, added simultaneously with anti-Fas monoclonal antibody (CH11, 10 ng); 6 hours; Anti-Fas antibody = 100
From the text: In HeLa/bcl-2 cells into which the bcl-2 gene is introduced, apoptosis is suppressed by the bcl-2 gene. For this reason, they acquire resistance to apoptosis induced by various anticancer agents or anti-Fas antibodies. Test compounds were examined in their eliminating effect on the apoptosis resistance of HeLa/bcl-2 by simultaneously adding an anti-Fas antibody and each test compound to HeLa/bcl-2 cells and detecting enzymatic activity of caspase that was activated in the process of apoptosis induction as described below. HeLa/bcl-2 cells in Medium A were placed in each well of a 96-well microtiter plate in an amount of 3×10^4 cells. The plate was incubated in a carbon dioxide gas incubator at 37° C. for 12 hours, then each test compound appropriately diluted with Medium A (10 μl) and an anti-Fas monoclonal antibody (CH11, 10 ng) were simultaneously added to each well, and the plate was further incubated in a carbon dioxide gas incubator at 37° C. for 6 hours. After the culture supernatant was removed, the cells were lysed, and caspase activity was measured in the same manner as in Test Example 1. The enzymatic activity of caspase, which was not increased by an anti-Fas antibody alone, was increased by the treatment with the anti-Fas antibody together with the test compound.

HeLa/bcl-2 cells [6] = experiment: Cytotoxic activity for HeLa/bcl-2 cells (XTT staining); details: 24 hours, read-out: Growth Inhibition (IC50), HeLa/bcl-2 cell
Method: HeLa/bcl-2 cells in Medium A were placed in each well of a 96-well microtiter plate in an amount of 3×10^4 cells. The plate was incubated in a carbon dioxide gas incubator at 37° C. for 12 hours, then 10 μl of each test compound appropriately diluted with Medium A was added to each well, and the incubation was further continued in a carbon dioxide gas incubator at 37° C.

SMILES: COC(=O)NC1C(C)OC(OC2CC=C(C)C3C=CC4C(OC5CC(OCc6ccccc6)C(OCc6ccccc6)C(COCc6ccccc6)O5)C(C)CC(C)C4C3(C)C(=O)C3=C(O)C4(CC(C=O)=CC(OC(C)=O)C4C=C2C)OC3=O)CC1(C)[N+](=O)[O-] (stereo not shown) [Compound 56]
- IC50 (MCF-7 cell): 630 nM

SMILES: COC(=O)NC1C(C)OC(OC2CC=C(C)C3C=CC4C(OC5(C)OC6OC(COC(C)=O)C(OC(C)=O)C(OC(C)=O)C6O5)C(C)CC(C)C4C3(C)C(=O)C3=C(O)C4(CC(C=O)=CC(OC(C)=O)C4C=C2C)OC3=O)CC1(C)[N+](=O)[O-] (stereo not shown) [Compound 66]
- MIC, BS [1]: >60.0 µg/mL
- MIC, SA [2]: 60.0 µg/mL (≈ 51.9 µM)
- MIC, EH [3]: 60.0 µg/mL (≈ 51.9 µM)
- IC50 (MCF-7 cell): 1400 nM

SMILES: COC(=O)NC1C(C)OC(OC2CC=C(C)C3C=CC4C(OC5C=CC(OC(C)=O)C(C)O5)C(C)CC(C)C4C3(C)C(=O)C3=C(O)C4(CC(C=O)=CC(OC(C)=O)C4C=C2C)OC3=O)CC1(C)[N+](=O)[O-] (stereo not shown) [Compound 61]
- Rate of Caspase Activation, HeLa/bcl-2 cell (HeLa/bcl-2 cells [4]): 370%
- MIC, BS [1]: 10.4 µg/mL (≈ 10.6 µM)
- MIC, SA [2]: —
- MIC, EH [3]: —
- Rate of Caspase Activation, HeLa cell (HeLa cells): 213%
- IC50 (MCF-7 cell): 1450 nM
- Rate of Caspase Activation, HeLa/bcl-2 cell (HeLa/bcl-2 cells [5]): 452%

SMILES: CCOC(OCC)C1=CC(O)C2/C=C(\C)C(OC3CC(C)([N+](=O)[O-])C(NC(=O)OC)C(C)O3)C/C=C(\C)C3C=CC4C(OC5CC(OC6CCC(OC7CC(O)C(OC8CCC(O)C(C)O8)C(C)O7)C(C)O6)C(OC(C)=O)C(C)O5)C(C)CC(C)C4C3(C)C(=O)C3=C(OC)C2(C1)OC3=O (stereo not shown) [Compound 38]
- MIC, BS [1]: 12.5 µg/mL (≈ 8.92 µM)
- MIC, SA [2]: —
- MIC, EH [3]: —
- IC50 (MCF-7 cell): 1220 nM

SMILES: COC(=O)NC1C(C)OC(OC2C/C=C(\C)C3C=CC4C(OC5CC(OC6CCC(OC7CC(O)C(O)C(C)O7)C(C)O6)C(OC(C)=O)C(C)O5)C(C)CC(C)C4C3(C)C(=O)C3=C(O)C4(CC(C=NO)=CC(O)C4/C=C/2C)OC3=O)CC1(C)[N+](=O)[O-] (stereo not shown) [Compound 24]
- MIC, BS [1]: 2.9 µg/mL (≈ 2.39 µM)
- MIC, SA [2]: >92 µg/mL
- MIC, EH [3]: >92 µg/mL

SMILES: COC(=O)NC1C(C)OC(OC2CC=C(C)C3C=CC4C(OC5CC(OCc6ccccc6)C(OCc6ccccc6)C(COCc6ccccc6)O5)C(C)CC(C)C4C3(C)C(=O)C3=C(O)C4(CC(C=O)=CC(O)C4C=C2C)OC3=O)CC1(C)[N+](=O)[O-] (stereo not shown) [Compound 55]
- Rate of Caspase Activation, HeLa/bcl-2 cell (HeLa/bcl-2 cells [4]): 448%
- Rate of Caspase Activation, HeLa cell (HeLa cells): 106%

SMILES: COC(=O)NC1C(C)OC(OC2CC=C(C)C3C=CC4C(OC5C=CC(O)C(C)O5)C(C)CC(C)C4C3(C)C(=O)C3=C(O)C4(CC(C=O)=CC(OC(C)=O)C4C=C2C)OC3=O)CC1(C)[N+](=O)[O-] (stereo not shown) [Compound 60]
- MIC, BS [1]: >83.3 µg/mL
- MIC, SA [2]: —
- MIC, EH [3]: —
- Rate of Caspase Activation, HeLa/bcl-2 cell (HeLa/bcl-2 cells [5]): 526%

SMILES: COC(=O)C=CC1=CC(O)C2/C=C(\C)C(OC3CC(C)([N+](=O)[O-])C(NC(=O)OC)C(C)O3)C/C=C(\C)C3C=CC4C(OC5CC(OC6CCC(OC7CC(O)C(OC8CCC(O)C(C)O8)C(C)O7)C(C)O6)C(OC(C)=O)C(C)O5)C(C)CC(C)C4C3(C)C(=O)C3=C(O)C2(C1)OC3=O (stereo not shown) [Compound 37]
- MIC, BS [1]: 0.42 µg/mL (≈ 0.307 µM)
- MIC, SA [2]: —
- MIC, EH [3]: —
- IC50 (MCF-7 cell): 5110 nM

SMILES: COC(=O)NC1C(C)OC(OC2C/C=C(\C)C3C=CC4C(OC5CC(OC6CCC(OC7CC(OC(C)=O)C(O)C(C)O7)C(C)O6)C(OC(C)=O)C(C)O5)C(C)CC(C)C4C3(C)C(=O)C3=C(O)C4(CC(C=O)=CC(OC(C)=O)C4/C=C/2C)OC3=O)CC1(C)[N+](=O)[O-] (stereo not shown) [Compound 65]
- MIC, BS [1]: 2.34 µg/mL (≈ 1.82 µM)
- MIC, SA [2]: —
- MIC, EH [3]: —
- IC50 (MCF-7 cell): 520 nM
- Rate of Caspase Activation, HeLa/bcl-2 cell (HeLa/bcl-2 cells [5]): 659%

SMILES: COC(=O)NC1C(C)OC(OC2C/C=C(\C)C3C=CC4C(OC5CC(OC6CCC(O)C(C)O6)C(OC(C)=O)C(C)O5)C(C)CC(C)C4C3(C)C(=O)C3=C(O)C4(CC(C=NO)=CC(O)C4/C=C/2C)OC3=O)CC1(C)[N+](=O)[O-] (stereo not shown) [Compound 25]
- MIC, BS [1]: >83 µg/mL
- MIC, SA [2]: —
- MIC, EH [3]: —

SMILES: COC(=O)NC1C(C)OC(OC2C/C=C(\C)C3C=CC4C(OC5CCCCO5)C(C)CC(C)C4C3(C)C(=O)C3=C(O)C4(CC(C=O)=CC(OC(C)=O)C4/C=C/2C)OC3=O)CC1(C)[N+](=O)[O-] (stereo not shown) [Compound 51]
- MIC, BS [1]: 6.25 µg/mL (≈ 6.88 µM)
- MIC, SA [2]: 1.56 µg/mL (≈ 1.72 µM)
- MIC, EH [3]: 1.56 µg/mL (≈ 1.72 µM)
- IC50 (MCF-7 cell): 1360 nM
- Rate of Caspase Activation, HeLa/bcl-2 cell (HeLa/bcl-2 cells [5]): 460%

SMILES: COC(=O)NC1C(C)OC(OC2C/C=C(\C)C3C=CC4C(OC5CC(OC6CCC(OC7CC(O)C(OC8CCC(O)C(C)O8)C(C)O7)C(C)O6)C(OC(C)=O)C(C)O5)C(C)CC(C)C4C3(C)C(=O)C3=C(O)C4(CC(C=O)=CC(O)C4/C=C/2C)OC3=O)CC1(C)[N+](=O)[O-] (stereo not shown) [Compound 1]
- Rate of Caspase Activation, HeLa/bcl-2 cell (HeLa/bcl-2 cells [5]): 964%

SMILES: COC(=O)NC1C(C)OC(OC2C/C=C(\C)C3C=CC4C(O[Si](C)(C)C(C)(C)C)C(C)CC(C)C4C3(C)C(=O)C3=C(O)C4(CC(C=O)=CC(O)C4/C=C/2C)OC3=O)CC1(C)[N+](=O)[O-] (stereo not shown) [Compound 22]
- IC50 (HeLa/bcl-2 cells [6]): 1800 nM
- Rate of Caspase Activation, HeLa/bcl-2 cell (HeLa/bcl-2 cells [4]): 1078%
- MIC, BS [1]: —
- MIC, SA [2]: 42 µg/mL (≈ 46.8 µM)
- MIC, EH [3]: 21 µg/mL (≈ 23.4 µM)
- Rate of Caspase Activation, HeLa cell (HeLa cells): 243%
- Rate of Caspase Activation, HeLa/bcl-2 cell (HeLa/bcl-2 cells [5]): 444%

SMILES: COC(=O)NC1C(C)OC(OC2CC=C(C)C3C=CC4C(OC5CC(OC(C)=O)C(OC(C)=O)C(C)O5)C(C)CC(C)C4C3(C)C(=O)C3=C(O)C4(CC(C=O)=CC(OC(C)=O)C4C=C2C)OC3=O)CC1(C)[N+](=O)[O-] (stereo not shown) [Compound 59]
- MIC, BS [1]: 16.7 µg/mL (≈ 16.1 µM)
- MIC, SA [2]: >66.7 µg/mL
- MIC, EH [3]: >66.7 µg/mL
- IC50 (MCF-7 cell): 980 nM

SMILES: CC[Si](CC)(CC)OC1C=CC(OC2C(C)CC(C)C3C2C=CC2C(C)=CCC(OC4CC(C)([N+](=O)[O-])C(NC(=O)OC)C(C)O4)C(C)=CC4C(OC(C)=O)C=C(C=O)CC45OC(=O)C(=C5O)C(=O)C23C)OC1C (stereo not shown) [Compound 63]
- MIC, BS [1]: >91.7 µg/mL
- MIC, SA [2]: —
- MIC, EH [3]: —
- IC50 (MCF-7 cell): 720 nM
